ChEMBL document CHEMBL2074152, “Structural determinants of substrates for the prostaglandin transporter PGT” (Mol Pharmacol, 1996)

Molecular target: Solute carrier organic anion transporter family member 2A1 (Rattus norvegicus, UniProt Q00910)
Test: TP_TRANSPORTER: inhibition of PGE2 uptake in PGT-expressing HeLa cells
Format: functional, cell-based

Row | Ki [µM] | SMILES
1 | 0.286 | CCCCC[C@H](O)/C=C/[C@H]1C=CC(=O)[C@@H]1CCCCCCC(=O)O [PROSTAGLANDIN A1]
2 | 0.0712 | CCCCC[C@H](O)/C=C/C1=C(CCCCCCC(=O)O)C(=O)CC1 [PROSTAGLANDIN B1]
3 | 0.162 | CCCCC[C@H](O)/C=C/[C@H]1C(=O)C[C@H](O)[C@@H]1CCCCCCC(=O)O [PROSTAGLANDIN D1]

Row | SMILES | Ki [µM]
4 | CCCCC[C@H](O)/C=C/[C@@H]1[C@@H](C/C=C\CCCC(=O)O)[C@@H]2C[C@H]1OO2 [PROSTAGLANDIN H2] | 0.0382
